Where two headings read alike, the source gives them in different places.
How the values were obtained:
[1] = cited from earlier work; for Cmax Human: Table 2, human
[2] = Pharmacokinetic parameters (t1/2, Cmax, tmax) identified for the drug panel; details: human, in vivo; Table 1, twice the half-life, main determinant for in vitro incubation time
From the text: The elimination half-life or drug half-life tin generally refers to the time required for half the dose of drug administered to be removed from the body. For those drugs to be tested, where a suitable tin can not be taken from the literature, and/or for the purpose of grouping or forming panels of drugs, tin values may be determined as follows.
In accordance with the existing guidelines, the rate (Cmax, tmax) and extent (AUC) of absorption of drug from a test formulation (vs. reference formulation) is evaluated using a single dose study in healthy volunteer subjects, followed by measuring the blood/plasma concentration of the parent drug and any major active metabolites (if present) for a time period of ≥3 t½.
For a determination of the parameters, blood samples are taken at 0, 1, 2, 3, 4, 5, 6, 7, and 8 hours, optionally followed by 10 and 12, 18, 24, 30, 36, and 42 hours after administration. As a general rule, the more frequently samples around the expected time of the maximum concentration are taken, the more accurate the value of t½ (and tmax and Cmax) are. The above determinations can be made in several individuals, and median values can be determined as parameter e.g. for grouping (see below), and testing.
Grouping or pre-selection of drugs can be achieved based on one or more of the following parameters that are known to the person of skill: • i) Cmax—the value defining the maximal concentration used, • ii) t½, —time until 1/2 of the drug is cleared by the patient/cells (half-life), • iii) Duration of action [h] (length of time that particular drug is effective), • iv) Elimination time [h] (time it takes for the concentration of the drug in the plasma or the total amount in the body to be removed), • v) Area under the curve (AUC) [ng*h/ml], • vi) Clearance (CL) [L/h]

[3] = tested on: Panc-1 cancer cells and NIH3T3 fibroblasts microtumor; assay: Redosing example: pancreatic cancer microtumor model, drug response; assay type: cell-based; details: dosed once for 7 h or re-dosed for another 7 h with 48 h recovery in between; four independent experiments
Protocol: (§1) A pancreatic cancer microtumor model consisting of Panc-1 cancer cells and NIH3T3 fibroblasts were treated with either Gemcitabine or 5-Flurouracil. Both drugs were dosed either once for 7 hours or re-dosed for another 7 h with a 48 h recovery time in between (four independent experiments).
as §1, with “(GEM) and/or 5-Flurouracil (5-FU).” for “or 5-Flurouracil.”

twice the half-life (2 × t1/2) [2] | Structure (SMILES) | Cmax Human [1] | t1/2 ([1]; Table 2) | t1/2 ([1]; Table 1, elimination half-life) | tmax ([1]; Table 2) | Efficiency on redosing versus single dosing [3]
– | O=C1[O][Pt]2([NH][C@@H]3CCCC[C@H]3[NH]2)[O]C1=O [Oxaliplatin] | 1200 ng/mL | 1.86 h | – | – | –
9.6 h | CC(=O)Nc1cccc(-n2c(=O)n(C3CC3)c(=O)c3c(Nc4ccc(I)cc4F)n(C)c(=O)c(C)c32)c1 [Trametinib] | 22 ng/mL | 4.35 h | 4.8 h | – | –
8.8 h | Nc1nc2[nH]cc(CCc3ccc(C(=O)N[C@@H](CCC(=O)O)C(=O)O)cc3)c2c(=O)[nH]1 [Pemetrexed] | 90000 to 150000 ng/mL | 4.4 h | 4.4 h | – | –
23.8 h | O=C(c1cc(Cc2n[nH]c(=O)c3ccccc23)ccc1F)N1CCN(C(=O)C2CC2)CC1 [Olaparib] | 5800 ng/mL | 11.9 h | 11.9 h | 1.3 h | –
0.6 h | O=c1[nH]cc(F)c(=O)[nH]1 [Fluorouracil] | – | – | 0.3 h | – | did not improve
0.46 h | Nc1ccn([C@@H]2O[C@H](CO)[C@@H](O)C2(F)F)c(=O)n1 [Gemcitabine] | 18500 ng/mL | 0.23 h | 0.23 h | – | increased efficiency
82 h | CC(=O)O[C@@]12CO[C@@H]1C[C@H](O)[C@@]1(C)C(=O)[C@H](O)C3=C(C)[C@@H](OC(=O)[C@H](O)[C@@H](NC(=O)OC(C)(C)C)c4ccccc4)C[C@@](O)([C@@H](OC(=O)c4ccccc4)[C@H]21)C3(C)C [Docetaxel] | 1500 to 2500 ng/mL | 41 h | 41 h | – | –
48.8 h | C#Cc1cccc(Nc2ncnc3cc(OCCOC)c(OCCOC)cc23)c1 [Erlotinib] | 2300 ng/mL | – | – | 5.5 h | –
